Results reported in paper PMC6068142, “Biochemical and structural characterization of a mannose binding jacalin-related lectin with two-sugar binding sites from pineapple (Ananas comosus) stem” (Scientific Reports, 2018).
In brackets after ≈: the same amount, converted by molar mass. Where two headings read alike, the source gives them in different places.

T1: AcmJRL (Ananas comosus, UniProt Q53J09)
T1 construct: native, purified from pineapple stem (D-mannose-Agarose, Superdex 75); initiator Met absent; N-terminus SGLVGLG; residues 2-145; not glycosylated; homodimer in solution, tetramer in crystal
T1 sequence (Q53J09 2-145): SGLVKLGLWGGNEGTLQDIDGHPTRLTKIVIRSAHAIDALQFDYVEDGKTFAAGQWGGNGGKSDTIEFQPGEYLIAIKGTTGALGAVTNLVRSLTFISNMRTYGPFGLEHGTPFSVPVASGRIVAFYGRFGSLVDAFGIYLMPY

B1: Ananas comosus mannose jacalin-related lectin (AcmJRL) (natural protein, UniProt Q53J09 2-145, looked up)
chain: T1 sequence (Q53J09 2-145)
notes: jacalin-like lectin from Ananas comosus (pineapple) stem, SwissProt entry Q53J09_ANACO; each monomer in the crystal runs from Ser2 to Tyr145; not glycosylated; Homodimer in solution by size-exclusion chromatography (0.15 mM); tetramer in the crystal (1.1 mM); Purification methods are in the Supplementary Materials and Methods; also called A. comosus lectin; jacalin-like lectin from A. comosus

How the values were obtained:
AcmJRL [1] = molecular target: T1, AcmJRL; set-up: inhibition of lectin-induced rat erythrocyte hemagglutination, two-fold serial dilution, lowest saccharide concentration visibly decreasing agglutination; conditions: minimum concentration inhibiting hemagglutination of rat erythrocytes; inhibitor
Experimental: Hemagglutinating activity was performed in microtiter plates with V-bottom wells, using the two-fold serial dilution method, starting with a concentration of 1 mg/mL (65 µM) lectin in phosphate-buffered saline containing 150 mM NaCl. Rabbit, sheep and rat erythrocytes were washed six times with 150 mM NaCl and resuspended at a final concentration of 3% (v/v) in 150 mM NaCl. Twenty-five µL of lectin solution were mixed with 25 µL of 3% erythrocytes, serially diluted and incubated at room temperature and 37 °C for 1 h. Hemagglutination activity was also assayed in the presence of 50 mM of the divalent ions Mg^2+, Mn^2+ Zn^2+ and Ca^2+. In this case, Tris-HCl 50 mM buffer at pH 7.2 containing 150 mM NaCl was used to avoid precipitation of phosphate compounds. The hemagglutination activity was given as a titer (the reciprocal of the highest two-fold dilution) or expressed as the minimum protein concentration (μg/mL), which produced visible hemagglutination and denoted as Hemagglutinating Unit (HU). Specific activity was defined as the HU per milligram of protein. The carbohydrate-binding specificity was determined by the inhibition of hemagglutination of rat erythrocytes, that were only the hemagglutinated ones, with starting concentrations of 100 mM for D-mannose, methyl-α-D-mannopyranoside and methyl-α-D-glucopyranoside, 50 mM for D-glucose and N-acetyl-D-glucosamine, 15 mM for Manα1,3Man and Manα1,3(Manα1,6)Man and 10 mM for Manα1,3Manα1,6(Manα1,6)Manα1,3. The different saccharides were serially diluted from the starting concentrations. After addition of 25 µL of A. comosus lectin (187.5 µg/mL) to all microplate wells, 25 µL of each saccharide were mixed separately in the first microtiter plate well followed by two-fold serial dilution and pre-incubated at room temperature for 1 h. Then 25 µL of 3% […] erythrocyte suspension were added to each well and the hemagglutination activity was evaluated after a further 1 h incubation period at room temperature and 37 °C. […] These are, e.g., the lectins from Phlebodium aureum rhizomes and Centrolobium microchaete seeds and heltuba[19],[47],[52].

AcmJRL [2] = molecular target: T2, AcmJRL (Ananas comosus, UniProt Q53J09); test: isothermal titration calorimetry; type: binding; conditions: for Ka (M^-1): Tris-HCl 50 mM, 150 mM NaCl, pH 7.4, 25 °C, fit with fixed n = 2 equivalent sites
T2 construct: native, purified from pineapple stem (D-mannose-Agarose, Superdex 75); initiator Met absent; N-terminus SGLVGLG; residues 2-145; not glycosylated; homodimer in solution, tetramer in crystal
Excerpt: isothermal titration calorimetry on AcmJRL

AcmJRL [3] = molecular target: T2, AcmJRL; test: inhibition of rat erythrocyte hemagglutination; type: cell-based; conditions: AcmJRL 62.5 µg/mL; two-fold serial dilution of sugar
[4] = molecular target: the molecule itself; test: crystal structure; hanging drop vapor diffusion at 20 °C, protein at 17 mg/mL (1.1 mM); apo form (1.8 Å) and crystals soaked with D-mannose (2.75 Å) or methyl-α-D-mannopyranoside (1.9 Å)
[5] = molecular target: the molecule itself; test: SEC; FPLC gel filtration on Superdex 75 of affinity-purified AcmJRL; 0.15 mM protein; estimated native mass ~30 kDa

Row | Molecule | MIC (AcmJRL [1]) | Ka (M^-1) (AcmJRL [2]) | further results
1 | OC[C@H]1OC(O)[C@H](O)[C@@H](O)[C@@H]1O (stereo partly drawn) [D-Glucose] | 3120 µM (≈ 562 µg/mL) | 83 ± 3 | 
2 | OC[C@H]1OC(O)[C@@H](O)[C@@H](O)[C@@H]1O (stereo partly drawn) [D-Mannose] | 6250 µM (≈ 1130 µg/mL) |  | Kd (AcmJRL [2]; read-out: Ka (M^-1) (converted)): 5.62 mM
3 | CC(=O)N[C@H]1C(O)O[C@H](CO)[C@@H](O)[C@@H]1O (stereo partly shown) [GlcNAc] | 3120 µM (≈ 690 µg/mL) | 88 ± 1 | 
4 | OC[C@H]1O[C@H](OC[C@H]2O[C@H](OC[C@H]3OC(O)[C@@H](O)[C@@H](O[C@H]4O[C@H](CO)[C@@H](O)[C@H](O)[C@@H]4O)[C@@H]3O)[C@@H](O)[C@@H](O[C@H]3O[C@H](CO)[C@@H](O)[C@H](O)[C@@H]3O)[C@@H]2O)[C@@H](O)[C@@H](O)[C@@H]1O (stereo partly shown) [Mannopentaose] | 320 µM (≈ 265 µg/mL) | 1694 ± 679 | 
5 | OC[C@H]1O[C@H](OC[C@H]2OC(O)[C@@H](O)[C@@H](O[C@H]3O[C@H](CO)[C@@H](O)[C@H](O)[C@@H]3O)[C@@H]2O)[C@@H](O)[C@@H](O)[C@@H]1O (stereo partly shown) [Mannotriose] | 470 µM (≈ 237 µg/mL) | 734 ± 117 | 
6 | OC[C@H]1O[C@H](O[C@H]2[C@H](O)[C@@H](CO)OC(O)[C@H]2O)[C@@H](O)[C@@H](O)[C@@H]1O (stereo partly shown) [Manα1,3Man] | 940 µM (≈ 322 µg/mL) | 421 ± 52 | 
7 | CO[C@H]1O[C@H](CO)[C@@H](O)[C@H](O)[C@H]1O [methyl-α-D-glucopyranoside] |  |  | MIC (AcmJRL [3]): 1560 µM (≈ 303 µg/mL)
8 | CO[C@H]1O[C@H](CO)[C@@H](O)[C@H](O)[C@@H]1O [methyl-α-D-mannopyranoside] |  |  | MIC (AcmJRL [3]): 1560 µM (≈ 303 µg/mL)
9 | B1 |  |  | stoichiometry N [4]: 4; stoichiometry N [5]: 2
